Experimental data from ChEMBL document CHEMBL1201862, “PubChem BioAssay data set” (2004).
Calls of active or inactive are those of the source.

Legend:
Estrogen receptor = target: T1, Estrogen receptor (Homo sapiens, UniProt P03372); test: blockers of SRC-3 recruitment to ERα – biochemical, ELISA, streptavidin-HRP readout, orthogonal assay, confirmation (AID 1079)
T1 sequence (P03372 whole entry): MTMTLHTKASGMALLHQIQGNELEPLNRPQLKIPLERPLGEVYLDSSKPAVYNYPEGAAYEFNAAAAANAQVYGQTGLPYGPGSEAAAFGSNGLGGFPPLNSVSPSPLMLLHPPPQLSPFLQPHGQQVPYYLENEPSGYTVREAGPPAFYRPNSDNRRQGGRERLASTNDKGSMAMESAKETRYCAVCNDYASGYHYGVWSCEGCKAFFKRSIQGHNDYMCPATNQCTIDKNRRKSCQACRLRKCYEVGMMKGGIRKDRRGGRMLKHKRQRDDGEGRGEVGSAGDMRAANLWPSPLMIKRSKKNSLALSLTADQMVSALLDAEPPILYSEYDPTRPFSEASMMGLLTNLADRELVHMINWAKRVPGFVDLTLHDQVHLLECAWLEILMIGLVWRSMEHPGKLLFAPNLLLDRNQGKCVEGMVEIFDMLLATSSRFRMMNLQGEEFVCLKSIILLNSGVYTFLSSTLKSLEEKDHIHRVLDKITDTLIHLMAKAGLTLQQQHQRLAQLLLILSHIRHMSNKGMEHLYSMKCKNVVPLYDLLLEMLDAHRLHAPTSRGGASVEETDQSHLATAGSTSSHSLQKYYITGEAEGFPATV

Streptokinase A = target: T2, Streptokinase A (Streptococcus pyogenes serotype M1, UniProt P10520); test: viability-normalized secreted streptokinase activity reduction – plasminogen activation absorbance, OD405, dose response (AID 1914); assay type: functional, Streptococcus pyogenes M1 GAS;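 also: secreted streptokinase activity via plasminogen activation per viability signal from cell pellet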
T2 sequence (P10520 whole entry): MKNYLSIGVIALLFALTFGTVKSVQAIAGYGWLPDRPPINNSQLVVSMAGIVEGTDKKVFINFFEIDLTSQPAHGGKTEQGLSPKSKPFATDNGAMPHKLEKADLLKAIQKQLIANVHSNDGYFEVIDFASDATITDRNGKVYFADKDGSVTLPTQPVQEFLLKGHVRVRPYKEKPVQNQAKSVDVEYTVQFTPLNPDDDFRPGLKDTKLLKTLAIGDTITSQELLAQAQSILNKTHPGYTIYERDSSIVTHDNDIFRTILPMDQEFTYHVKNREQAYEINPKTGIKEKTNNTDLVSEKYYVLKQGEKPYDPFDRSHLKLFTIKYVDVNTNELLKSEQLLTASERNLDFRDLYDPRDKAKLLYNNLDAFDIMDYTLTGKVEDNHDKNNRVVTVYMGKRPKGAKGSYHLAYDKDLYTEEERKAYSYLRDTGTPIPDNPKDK

Streptococcus = test: GAS UMAA2166 growth inhibition – luminescence, BacTiterGlo, counter-screen for streptokinase expression inhibitor project, dose response (AID 1915); assay type: functional, organism-based;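 also: potency for reduction of bacterial viability or growth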
[1] = target: T3, Delta-type opioid receptor (Homo sapiens, UniProt P41143); test: HTS Image-Based Screen for Antagonists of the DOR Receptor. [Related pubchem assays (depositor defined):AID1777, AID1785, AID1786, AID2133]; assay type: functional
T3 sequence (P41143 whole entry): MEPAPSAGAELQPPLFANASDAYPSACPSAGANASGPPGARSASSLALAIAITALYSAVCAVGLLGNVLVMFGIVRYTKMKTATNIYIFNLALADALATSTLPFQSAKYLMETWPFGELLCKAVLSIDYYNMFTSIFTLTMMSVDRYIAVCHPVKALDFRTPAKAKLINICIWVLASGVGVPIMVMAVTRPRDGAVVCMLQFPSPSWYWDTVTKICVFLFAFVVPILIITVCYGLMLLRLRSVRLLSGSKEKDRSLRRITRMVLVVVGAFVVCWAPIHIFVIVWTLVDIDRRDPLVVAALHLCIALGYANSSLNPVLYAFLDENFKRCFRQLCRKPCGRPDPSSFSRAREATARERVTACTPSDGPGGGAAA

[2] = target: T4, Kappa-type opioid receptor (Homo sapiens, UniProt P41145); assay type: functional
T4 sequence (P41145 whole entry): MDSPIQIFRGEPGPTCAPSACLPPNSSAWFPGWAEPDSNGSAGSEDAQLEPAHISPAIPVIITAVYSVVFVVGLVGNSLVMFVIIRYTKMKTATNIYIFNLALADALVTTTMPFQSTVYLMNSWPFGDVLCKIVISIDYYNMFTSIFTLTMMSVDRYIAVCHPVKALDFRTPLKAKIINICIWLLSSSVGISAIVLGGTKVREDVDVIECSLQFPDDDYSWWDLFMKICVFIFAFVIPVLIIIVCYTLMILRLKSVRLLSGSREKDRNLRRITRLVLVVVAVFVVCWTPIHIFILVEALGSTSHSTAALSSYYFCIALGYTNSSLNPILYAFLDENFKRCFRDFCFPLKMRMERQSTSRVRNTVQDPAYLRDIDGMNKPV

Beta-galactosidase [3] = target: T5, Beta-galactosidase (Escherichia coli, UniProt Q8VNN2); test: PubChem AID 485352; assay type: functional
T5 sequence (Q8VNN2 whole entry): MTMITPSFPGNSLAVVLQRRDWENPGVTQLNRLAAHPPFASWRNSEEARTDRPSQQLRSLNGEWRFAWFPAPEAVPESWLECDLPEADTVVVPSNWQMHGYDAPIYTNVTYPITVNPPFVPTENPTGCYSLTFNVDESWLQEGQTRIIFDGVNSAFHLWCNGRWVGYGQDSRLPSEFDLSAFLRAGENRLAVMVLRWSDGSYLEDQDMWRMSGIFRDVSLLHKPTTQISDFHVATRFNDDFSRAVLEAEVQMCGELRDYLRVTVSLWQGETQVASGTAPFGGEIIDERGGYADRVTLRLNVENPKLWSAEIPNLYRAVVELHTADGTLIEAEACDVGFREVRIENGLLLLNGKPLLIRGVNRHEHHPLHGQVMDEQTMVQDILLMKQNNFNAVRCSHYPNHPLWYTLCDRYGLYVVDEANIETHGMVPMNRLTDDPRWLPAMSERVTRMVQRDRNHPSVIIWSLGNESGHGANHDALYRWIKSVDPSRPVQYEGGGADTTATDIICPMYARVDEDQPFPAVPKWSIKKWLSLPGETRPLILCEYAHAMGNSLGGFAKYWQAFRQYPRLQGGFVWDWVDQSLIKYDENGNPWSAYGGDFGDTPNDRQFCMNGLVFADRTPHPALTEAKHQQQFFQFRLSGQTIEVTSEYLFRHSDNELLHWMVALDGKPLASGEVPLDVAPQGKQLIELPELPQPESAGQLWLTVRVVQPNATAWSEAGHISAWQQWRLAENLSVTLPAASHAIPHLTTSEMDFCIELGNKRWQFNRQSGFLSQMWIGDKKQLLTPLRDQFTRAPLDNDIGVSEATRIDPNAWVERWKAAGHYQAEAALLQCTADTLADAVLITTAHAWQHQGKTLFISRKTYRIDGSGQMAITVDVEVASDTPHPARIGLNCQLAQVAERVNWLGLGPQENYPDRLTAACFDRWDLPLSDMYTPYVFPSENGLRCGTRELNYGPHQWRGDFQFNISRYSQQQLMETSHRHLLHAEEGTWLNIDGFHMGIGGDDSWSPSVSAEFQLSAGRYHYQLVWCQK

[4] = tested on: Streptococcus sp. 'group A'; test: Streptococcus pyogenes SK(-)GAS viability under kanamycin – luminescence, BacTiterGlo, confirmation, counter-screen for streptokinase expression inhibitor project, dose response (AID 1900); assay type: functional, organism-based
Vero [5] = test: cells; assay type: functional; conditions: Chlorocebus sabaeus
Vero [6] = test: cells; assay type: functional, cell-based; conditions: Chlorocebus sabaeus
[7] = A Cell Based Secondary Assay To Explore Cytotoxicity of Compounds that Sensitize Mycobacterium Tuberculosis to Beta-Lactam Antibiotics.; assay type: functional
Vero [8] = test: mammalian cell viability reduction – secondary assay, cytotoxicity control for West Nile virus antiviral project, dose response (AID 1650); assay type: functional; conditions: Chlorocebus sabaeus
Mu-type opioid receptor = Mu-type opioid receptor (Homo sapiens, UniProt P35372); test: HTS Image-Based Screen for Agonists of the MOR Receptor. [Related pubchem assays (depositor defined):AID1777, AID1785, AID1786, AID2133]; assay type: functional;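 also: imaging of beta-arrestin GFP recruitment into spots after receptor activation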
Mu-type opioid receptor, sequence (P35372 whole entry): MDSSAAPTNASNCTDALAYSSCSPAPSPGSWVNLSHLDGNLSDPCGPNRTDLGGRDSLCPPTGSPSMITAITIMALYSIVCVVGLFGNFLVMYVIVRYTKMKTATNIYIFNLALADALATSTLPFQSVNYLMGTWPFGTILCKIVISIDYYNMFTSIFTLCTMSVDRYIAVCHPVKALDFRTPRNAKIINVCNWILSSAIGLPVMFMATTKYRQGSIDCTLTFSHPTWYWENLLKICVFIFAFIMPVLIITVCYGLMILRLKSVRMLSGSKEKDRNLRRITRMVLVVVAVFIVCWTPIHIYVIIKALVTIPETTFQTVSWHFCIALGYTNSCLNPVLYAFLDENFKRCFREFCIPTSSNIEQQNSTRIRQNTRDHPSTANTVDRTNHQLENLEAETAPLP

[9] = target: T3, Delta-type opioid receptor; test: HTS Image-Based Screen for Agonists of the DOR Receptor. [Related pubchem assays (depositor defined):AID1777, AID1786, AID2133]; assay type: functional
Beta-galactosidase [10] = target: T5, Beta-galactosidase; assay type: functional
[11] = Luminescence Cell-Based Dose Confirmation HTS to Identify Inhibitors of Polyadenylation.; assay type: functional
[12] = target: T6, Type-1 angiotensin II receptor (Homo sapiens, UniProt P30556); test: antagonism of angiotensin II type 1 receptor – cell-based, uHTS hits, selectivity assay for APJ receptor antagonist project, dose response (AID 463214); assay type: functional;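 also: antagonist potency against angiotensin II stimulated AT1 response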
T6 sequence (P30556 whole entry): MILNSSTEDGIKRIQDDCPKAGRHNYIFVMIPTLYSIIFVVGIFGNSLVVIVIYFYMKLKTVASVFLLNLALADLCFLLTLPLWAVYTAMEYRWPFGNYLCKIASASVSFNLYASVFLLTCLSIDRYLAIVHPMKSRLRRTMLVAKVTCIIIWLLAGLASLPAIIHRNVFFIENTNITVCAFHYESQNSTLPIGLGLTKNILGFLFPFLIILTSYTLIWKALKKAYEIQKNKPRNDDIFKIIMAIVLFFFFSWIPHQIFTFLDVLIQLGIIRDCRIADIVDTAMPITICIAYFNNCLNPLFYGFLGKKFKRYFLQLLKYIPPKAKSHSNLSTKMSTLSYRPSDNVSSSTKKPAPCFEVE

[13] = target: T4, Kappa-type opioid receptor; assay type: functional; remark: listed apart in the source
[14] = target: T7, Oxysterols receptor LXR-beta (Homo sapiens, UniProt P55055); assay type: functional, cell-based;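 also: agonist activity at LXR measured by a cell-based luminescence readout across a dose range, run as a counterscreen for daf-12 agonists; HEK293 cells with Gal4-LXR fusion and GAL4-driven luciferase reporter; potency for activation of Gal4-LXR reporter so compounds are agonists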
T7 sequence (P55055 whole entry): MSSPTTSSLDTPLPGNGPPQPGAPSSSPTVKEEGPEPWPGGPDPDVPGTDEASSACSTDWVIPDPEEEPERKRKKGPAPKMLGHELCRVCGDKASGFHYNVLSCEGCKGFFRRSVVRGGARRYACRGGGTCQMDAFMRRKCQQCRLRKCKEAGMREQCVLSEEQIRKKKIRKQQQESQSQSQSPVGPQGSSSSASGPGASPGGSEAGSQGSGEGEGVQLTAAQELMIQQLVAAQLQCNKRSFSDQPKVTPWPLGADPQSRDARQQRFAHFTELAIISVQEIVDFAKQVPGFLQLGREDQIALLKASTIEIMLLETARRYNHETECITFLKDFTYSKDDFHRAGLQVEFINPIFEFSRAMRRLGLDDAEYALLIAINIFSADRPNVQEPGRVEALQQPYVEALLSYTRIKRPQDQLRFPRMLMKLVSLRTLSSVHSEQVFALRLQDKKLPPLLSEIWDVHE

[15] = target: Epstein-Barr nuclear antigen 1 (Epstein-Barr virus (strain B95-8) (HHV-4) (Human herpesvirus 4), UniProt P03211); test: inhibition of EBV nuclear antigen 1 DNA binding – biochemical, fluorescence polarization, 1536-well, dose response (AID 2381); set-up: species or system human gammaherpesvirus 4;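 also: fluorescence polarization of a Cy5 DNA probe bound by EBNA-1 protein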
Epstein-Barr nuclear antigen 1, sequence (P03211 whole entry): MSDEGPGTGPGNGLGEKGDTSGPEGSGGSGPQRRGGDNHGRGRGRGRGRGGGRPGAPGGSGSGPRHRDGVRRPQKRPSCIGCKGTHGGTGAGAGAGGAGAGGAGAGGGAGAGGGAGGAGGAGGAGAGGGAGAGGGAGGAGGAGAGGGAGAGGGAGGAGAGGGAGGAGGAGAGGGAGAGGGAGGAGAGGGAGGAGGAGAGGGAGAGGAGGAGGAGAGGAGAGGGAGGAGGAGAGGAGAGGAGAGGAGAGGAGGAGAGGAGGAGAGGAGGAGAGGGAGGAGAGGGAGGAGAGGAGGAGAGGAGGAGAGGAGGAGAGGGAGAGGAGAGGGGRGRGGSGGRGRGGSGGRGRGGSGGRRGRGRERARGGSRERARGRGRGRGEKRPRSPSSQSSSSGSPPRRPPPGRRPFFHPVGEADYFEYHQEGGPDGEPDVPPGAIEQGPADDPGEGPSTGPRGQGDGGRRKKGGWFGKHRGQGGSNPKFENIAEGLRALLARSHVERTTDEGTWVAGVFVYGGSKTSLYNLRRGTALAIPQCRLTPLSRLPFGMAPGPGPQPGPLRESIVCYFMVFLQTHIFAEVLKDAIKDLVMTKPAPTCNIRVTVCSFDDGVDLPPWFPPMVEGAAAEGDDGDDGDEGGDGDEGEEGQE

[16] = target: Lytic switch protein BZLF1 (Epstein-Barr virus (strain B95-8) (HHV-4) (Human herpesvirus 4), UniProt P03206); test: inhibition of BZLF1 ZTA DNA binding – biochemical, fluorescence polarization, Epstein-Barr virus, 1536-well, counter-screen for EBNA-1 inhibitor project, dose response (AID 2377); set-up: species or system human gammaherpesvirus 4;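 also: fluorescence polarization of Cy5-labelled ZRE DNA probe bound by purified Zta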
Lytic switch protein BZLF1, sequence (P03206 whole entry): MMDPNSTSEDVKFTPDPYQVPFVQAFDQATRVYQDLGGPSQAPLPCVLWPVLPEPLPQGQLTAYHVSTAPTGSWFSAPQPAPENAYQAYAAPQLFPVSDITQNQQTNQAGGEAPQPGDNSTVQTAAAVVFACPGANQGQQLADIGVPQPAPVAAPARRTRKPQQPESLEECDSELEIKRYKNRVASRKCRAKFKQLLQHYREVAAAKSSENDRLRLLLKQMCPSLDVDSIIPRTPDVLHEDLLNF

[17] = Trypanosoma cruzi growth suppression in host cells – NIH3T3 host cells, beta-gal luminescence, confirmation (AID 2044); assay type: functional, cell-based;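 also: intracellular parasites grown in NIH/3T3 mouse fibroblasts as host cells; luminescent beta-galactosidase reporter signal from transgenic T. cruzi replicating inside host cells; inhibitors lower the luminescence signal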
[18] = Luminescence-based dose response cell-based high throughput screening assay for cytotoxic compounds using the IEC-6 intestinal epithelial cell line. [Related pubchem assays: 1858 (Summary AID.), 1825 (Counterscreen.), 1907 (Confirmation screen.)]; assay type: functional
[19] = NIH3T3 cell viability loss – ATP luminescence, mouse fibroblasts, counter-screen, dose response (AID 2010); assay type: functional, cell-based;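 also: cells exposed to compound for about 90 hours before reading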
[20] = viability of uninfected HEp-2 cells – cell-based, HTS, cytotoxicity control for RSV inhibitor project, dose response (AID 2410); assay type: functional; conditions: human respiratory syncytial virus
[21] = target: T8, Rac GTPase-activating protein 1 (Homo sapiens, UniProt Q9H0H5); test: blockers of MgcRacGAP-driven Rac1 GTP hydrolysis – biochemical, ADP Hunter fluorescence, primary and confirmatory, confirmation (AID 624330); assay type: functional
T8 sequence (Q9H0H5 whole entry): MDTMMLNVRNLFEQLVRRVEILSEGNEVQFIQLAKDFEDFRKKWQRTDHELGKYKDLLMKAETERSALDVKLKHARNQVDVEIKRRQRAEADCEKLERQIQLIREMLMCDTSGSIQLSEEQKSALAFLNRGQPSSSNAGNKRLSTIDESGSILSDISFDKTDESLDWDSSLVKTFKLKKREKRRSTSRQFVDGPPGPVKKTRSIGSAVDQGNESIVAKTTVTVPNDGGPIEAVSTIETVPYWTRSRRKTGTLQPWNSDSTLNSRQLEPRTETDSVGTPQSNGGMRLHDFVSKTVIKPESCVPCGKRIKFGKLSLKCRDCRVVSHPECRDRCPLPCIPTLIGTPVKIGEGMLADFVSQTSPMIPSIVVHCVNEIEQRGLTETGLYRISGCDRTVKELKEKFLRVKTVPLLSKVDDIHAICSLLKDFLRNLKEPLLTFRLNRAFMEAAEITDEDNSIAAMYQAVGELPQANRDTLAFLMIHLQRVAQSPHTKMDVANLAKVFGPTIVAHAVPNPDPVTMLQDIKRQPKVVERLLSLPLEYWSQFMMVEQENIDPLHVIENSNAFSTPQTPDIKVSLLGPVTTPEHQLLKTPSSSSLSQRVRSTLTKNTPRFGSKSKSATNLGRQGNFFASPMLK

[22] = target: Sphingosine 1-phosphate receptor 1 (Homo sapiens, UniProt P21453); test: Dose Response Cell-Based Assay for Agonists of the Sphingosine 1-Phosphate Receptor 1 (S1P1): Purchased Analogues. [Related pubchem assays: 1192, 373, 439 ]; assay type: functional
Sphingosine 1-phosphate receptor 1, sequence (P21453 whole entry): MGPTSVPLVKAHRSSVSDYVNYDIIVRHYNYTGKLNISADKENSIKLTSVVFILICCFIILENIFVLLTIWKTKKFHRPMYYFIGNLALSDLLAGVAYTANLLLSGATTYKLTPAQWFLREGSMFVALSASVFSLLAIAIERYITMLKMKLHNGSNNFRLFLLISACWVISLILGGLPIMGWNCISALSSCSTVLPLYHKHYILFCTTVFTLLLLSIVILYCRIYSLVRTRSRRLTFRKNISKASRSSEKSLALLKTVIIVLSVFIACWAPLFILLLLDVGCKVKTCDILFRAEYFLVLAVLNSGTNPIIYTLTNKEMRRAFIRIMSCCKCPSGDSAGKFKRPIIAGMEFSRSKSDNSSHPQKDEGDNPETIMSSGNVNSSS

[23] = target: Sphingosine 1-phosphate receptor 2 (Homo sapiens, UniProt O95136); test: Dose Response Cell-Based Assay for Agonists of the Sphingosine 1-Phosphate Receptor 2 (S1P2): Purchased Analogues. [Related pubchem assays: 1192, 373, 439 ]; assay type: functional
Sphingosine 1-phosphate receptor 2, sequence (O95136 whole entry): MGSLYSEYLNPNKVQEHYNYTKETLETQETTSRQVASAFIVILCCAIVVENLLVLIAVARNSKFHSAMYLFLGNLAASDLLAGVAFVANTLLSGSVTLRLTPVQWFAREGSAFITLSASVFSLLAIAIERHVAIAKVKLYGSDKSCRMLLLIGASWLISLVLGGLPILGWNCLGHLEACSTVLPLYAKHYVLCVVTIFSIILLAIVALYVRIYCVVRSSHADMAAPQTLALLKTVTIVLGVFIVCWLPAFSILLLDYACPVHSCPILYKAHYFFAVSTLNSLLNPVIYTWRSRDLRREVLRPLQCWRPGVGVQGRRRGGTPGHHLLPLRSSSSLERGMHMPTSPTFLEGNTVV

[24] = target: Sphingosine 1-phosphate receptor 3 (Homo sapiens, UniProt Q99500); test: Dose Response Cell-Based Assay for Agonists of the Sphingosine 1-Phosphate Receptor 3 (S1P3): Purchased Analogues. [Related pubchem assays: 373, 439 ]; assay type: functional
Sphingosine 1-phosphate receptor 3, sequence (Q99500 whole entry): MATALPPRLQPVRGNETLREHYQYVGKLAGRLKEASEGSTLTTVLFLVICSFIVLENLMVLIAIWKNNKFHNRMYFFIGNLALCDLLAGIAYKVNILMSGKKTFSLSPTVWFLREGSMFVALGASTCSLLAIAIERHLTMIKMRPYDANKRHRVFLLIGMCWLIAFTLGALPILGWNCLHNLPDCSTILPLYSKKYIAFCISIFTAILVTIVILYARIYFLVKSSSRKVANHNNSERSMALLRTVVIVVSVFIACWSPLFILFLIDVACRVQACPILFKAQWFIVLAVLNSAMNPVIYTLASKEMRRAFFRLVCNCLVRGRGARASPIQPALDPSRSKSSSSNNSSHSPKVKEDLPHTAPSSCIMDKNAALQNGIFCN

[25] = target: T9, DNA repair and recombination protein RAD54-like (Homo sapiens, UniProt Q92698); test: RAD54 Holliday junction migration blockers – biochemical, fluorescence, cherry-picked samples, dose series, confirmation (AID 651657); assay type: functional
T9 sequence (Q92698 whole entry): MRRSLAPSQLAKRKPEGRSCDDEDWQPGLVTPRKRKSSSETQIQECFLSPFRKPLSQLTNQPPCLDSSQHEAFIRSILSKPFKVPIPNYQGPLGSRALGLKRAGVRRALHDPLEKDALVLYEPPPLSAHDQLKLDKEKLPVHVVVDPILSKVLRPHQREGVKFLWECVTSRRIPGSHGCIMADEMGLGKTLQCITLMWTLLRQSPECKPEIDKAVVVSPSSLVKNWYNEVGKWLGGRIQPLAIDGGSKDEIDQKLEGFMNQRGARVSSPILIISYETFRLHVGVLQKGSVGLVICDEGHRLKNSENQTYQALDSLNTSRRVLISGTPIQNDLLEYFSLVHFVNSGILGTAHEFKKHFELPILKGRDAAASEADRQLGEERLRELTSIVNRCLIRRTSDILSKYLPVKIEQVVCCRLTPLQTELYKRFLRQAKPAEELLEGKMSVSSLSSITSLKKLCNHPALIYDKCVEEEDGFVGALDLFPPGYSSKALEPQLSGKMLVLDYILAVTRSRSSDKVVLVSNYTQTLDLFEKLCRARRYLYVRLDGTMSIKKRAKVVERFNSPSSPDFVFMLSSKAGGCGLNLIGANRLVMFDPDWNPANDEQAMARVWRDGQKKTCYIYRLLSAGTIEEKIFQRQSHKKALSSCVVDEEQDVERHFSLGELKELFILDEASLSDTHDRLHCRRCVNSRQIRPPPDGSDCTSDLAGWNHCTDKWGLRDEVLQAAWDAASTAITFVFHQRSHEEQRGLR

[26] = target: Luciferin 4-monooxygenase (Photinus pyralis, UniProt P08659); test: Counter Screen for Luciferase-based Assay Positives. [Related pubchem assays: 620, 618, 411 ]
Luciferin 4-monooxygenase, sequence (P08659 whole entry): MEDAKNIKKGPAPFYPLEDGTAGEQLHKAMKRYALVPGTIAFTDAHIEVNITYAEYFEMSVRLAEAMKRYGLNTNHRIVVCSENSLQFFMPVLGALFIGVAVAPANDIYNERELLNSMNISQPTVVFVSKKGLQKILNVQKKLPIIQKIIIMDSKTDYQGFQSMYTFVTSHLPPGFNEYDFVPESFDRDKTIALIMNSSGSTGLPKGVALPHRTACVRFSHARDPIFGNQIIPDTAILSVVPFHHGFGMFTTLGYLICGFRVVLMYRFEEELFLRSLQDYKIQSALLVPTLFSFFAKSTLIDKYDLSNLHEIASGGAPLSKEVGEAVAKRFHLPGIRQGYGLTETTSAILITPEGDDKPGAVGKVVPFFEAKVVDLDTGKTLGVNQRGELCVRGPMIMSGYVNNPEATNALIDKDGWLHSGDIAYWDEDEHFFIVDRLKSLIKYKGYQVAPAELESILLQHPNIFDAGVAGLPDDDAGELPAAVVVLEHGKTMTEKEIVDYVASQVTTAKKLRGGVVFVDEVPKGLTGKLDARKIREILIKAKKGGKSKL

Compound: COC(=O)c1ccc2c(=O)n(CCCC(=O)N3CCN(c4cccc(Cl)c4)CC3)c(=S)[nH]c2c1
- IC50 (Estrogen receptor): 18.7 µM (not active)

Compound: Cc1ccc(S(=O)(=O)Nc2cccc3cccnc23)c([N+](=O)[O-])c1
- EC50 (Streptokinase A): > 150 µM (not active)
- EC50 (Streptococcus): 17.4 µM (active)
- IC50 [1]: > 32 µM (inactive)
- IC50 [2]: > 32 µM
- EC50 (Beta-galactosidase [3]): > 40 µM (inactive)
- EC50 [4]: 0.707 µM (active)
- CC50 (Vero [5]): 7.85 µM (active)
- IC50 (Vero [6]): 18.4 µM (active)
- CC50 [7]: 5.64 µM (active)
- CC50 (Vero [8]): 5.79 µM (active)
- EC50 (Mu-type opioid receptor): > 32 µM (inactive)
- EC50 [9]: > 32 µM (inactive)
- EC50 (Beta-galactosidase [10]): > 31.5 µM (inactive)
- EC50 [11]: > 120 µM (not active)
- IC50 [12]: 8.21 µM (active)
- IC50 [13]: 5.55 µM (active)

Compound: COc1ccc2oc(C(=O)Nc3nccs3)c(C)c2c1
- EC50 [14]: > 67.5 µM (inactive)
- IC50 [15]: 21 µM (not active)
- IC50 [16]: > 111 µM (not active)

Compound: O=C(N/N=C/c1ccc(O)cc1)Nc1cccc2nsnc12
- EC50 [17]: 0.356 µM (active)
- IC50 [18]: 2.51 µM (active)
- EC50 [19]: 10.8 µM (active)
- CC50 [20]: > 50 µM (active)
- IC50 [21]: 63.5 µM (active)

Compound: Cc1ccc(-c2cc(C(=O)NC3CCCCC3)no2)cc1
- EC50 [22]: 0.194 µM (active)
- EC50 [23]: > 10 µM (not active)
- EC50 [24]: > 50 µM (not active)

Compound: COc1ccc2nc(-c3ccc(N)cc3)[nH]c2c1
- AC50 [25]: 35.1 µM (active)
- EC50 [26]: 0.38 µM (active)
